Source: PMC9558053, “Development of a novel high-throughput screen for the identification of new inhibitors of protein S-acylation” (The Journal of Biological Chemistry, 2022)

Molecular target: T1, human zDHHC15 (Homo sapiens, UniProt Q96MV8)
T1 construct: expressed in transfected cells; host or cells: HEK293T
T1 sequence (Q96MV8 1-337): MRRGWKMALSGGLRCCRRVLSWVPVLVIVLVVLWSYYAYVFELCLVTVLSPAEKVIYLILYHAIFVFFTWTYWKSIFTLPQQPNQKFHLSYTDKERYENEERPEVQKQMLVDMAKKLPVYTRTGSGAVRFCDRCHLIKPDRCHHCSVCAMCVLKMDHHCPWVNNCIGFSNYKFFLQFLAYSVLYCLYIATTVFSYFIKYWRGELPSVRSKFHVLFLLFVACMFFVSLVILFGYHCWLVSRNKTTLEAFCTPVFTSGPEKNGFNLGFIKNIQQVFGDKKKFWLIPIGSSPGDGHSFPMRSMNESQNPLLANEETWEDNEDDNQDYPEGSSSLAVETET
Test: GFP-SNAP25b S-acylation in HEK293T cells co-expressing zDHHC15
Format: cell-based
Details: HEK-293T; in cellulo HEK293T, compound 25 μM; read-out: SNAP25 S-acylation inhibition (%), zDHHC15
Procedure: We next investigated whether the identified compounds were effective at inhibiting zDHHC enzyme isoforms other than zDHHC2 (Fig. 6 and Table 1). […] We therefore treated cells coexpressing GFP-SNAP25 and each of these zDHHC enzymes with 25 μM of TTZ-1 and TTZ-2 and studied the subsequent effect on SNAP25 S-acylation. […] Importantly, the level of enzyme expression was unaffected by the compounds. […] As any major differences in the expression levels of the different enzymes could in theory contribute to the apparent differential effects of TTZ-1 and TTZ-2, we directly compared the expression of zDHHC2, zDHHC3, zDHHC7, zDHHC15, and zDHHC17 when transfected in HEK293T cells together with GFP-SNAP25.
Figure 6 Activity of TTZ-1 and TTZ-2 against SNAP25 S-acylation by human zDHHC2, zDHHC3, zDHHC7, zDHHC15, and zDHHC17 expressed in mammalian cells.A–E, HEK293T cells were transfected with a plasmid encoding GFP-SNAP25b together with either a control plasmid pEF-BOS-HA (pEF) or a plasmid encoding either HA-tagged human zDHHC2 (zD2) (A), zDHHC3 (zD3) (B), zDHHC7 (zD7) (C), zDHHC15 (zD15) (D), or zDHHC17 (zD17) (E) for 24 h. […] Three independent experiments were performed either in duplicate or in triplicate, and the quantification data were gathered on the graphs below each set of membranes. […]

Row | SMILES | inhibition at 25 µM [%]
1 | CCCCCCCOc1ccc(C(=O)Nc2cccc3c2OC(c2nnn[nH]2)CN3)cc1 (centres unmarked) [TTZ-1, N-(2-(1H-Tetrazol-5-yl)-3,4-dihydro-2H-benzo[b][1,4]oxazin-8-yl)-4-(heptyloxy)benzamide] | 112 ± 6
2 | O=C(Nc1cccc2c1OC(c1nnn[nH]1)CN2)c1ccc(OCCCCc2ccccc2)cc1 (centres unmarked) [TTZ-2, N-(2-(1H-Tetrazol-5-yl)-3,4-dihydro-2H-benzo[b][1,4]oxazin-8-yl)-4-(4-phenylbutoxy)benzamide] | 93 ± 6
